These are literature values, as cited in patent publication US20110294815A1, “PROSTACYCLIN ANALOGS” (priority 2008, published 2011).

The conditions of this data set: patients with hepatic insufficiency vs healthy adults.

SMILES strings stand for the structures.

In the case of `CCCCC[C@H](O)CC[C@@H]1[C@H]2Cc3cccc(OCC(=O)[O-])c3C[C@H]2C[C@H]1O.[Na+]` [treprostinil, (1R,2R,3aS,9aS)-[[2,3,3a,4,9,9a-Hexahydro-2-hydroxy-1-[(3S)-3-hydroxyoctyl]-1H-benz[f]inden-5-yl]oxy]acetic acid monosodium salt], the “reduction of clearance compared to healthy adults” value is listed as “up to 80%”.
